We go through two compounds from article PMC7732128, “Regulation of gene transcription by thyroid hormone receptor β agonists in clinical development for the treatment of non-alcoholic steatohepatitis (NASH)” (PLoS ONE, 2020).

One assay concerns THR (THRSP RNA in PHH). Kind of assay: Differential gene expression assay in primary human hepatocytes (PHH). Conditions: Hepatocyte, RT-qPCR, 24 hrs treatment, read-out: PHH EC50 Mean ± SEM. In kind it is cell-based. (In qPCR the cycle at which signal appears reflects the starting amount.)
Assay [1] deals with THR (ANGPTL4, CPT1A, DIO1 RNA in Huh-7 cells). Put plainly: Differential gene expression assay in Huh-7 cells. Conditions: Homo sapiens. In kind it is cell-based, human. Here is the method:
Hepatoma-derived Huh-7 cells (JCRB Cell Bank, JCRB0403) were obtained directly from the repository, which performed cell line authentication via isozyme analysis and comprehensively tested for microbial contamination, viral contamination, and cross culture contamination. Cells were routinely cultured in DMEM (Corning, 10-013-CM) supplemented with 10% FBS and 1% P/S at 37°C and 5% CO2 until 80–90% confluency. Cells were then detached with 0.05% trypsin (Corning, 25-052-CV), resuspended in TH-free medium (DMEM supplemented with 10% TH-depleted FBS and 1% P/S), and seeded into collagen-coated, 96-well microplates (Corning, 354407) at 5.0 x 10^4 cells/well. After 24 hrs, the culture medium was replaced with treatment media. Cells were treated for 24 hrs. TH-depletion of the FBS via resin treatment was accomplished as previously described. All treatment media were made by mixing test compounds, serially diluted in DMSO, with TH-free medium (0.1% final DMSO concentration).
After 24 hrs in treatment media, both Huh-7 cells and PHH were processed with the TaqMan Fast Advanced Cells-to-Ct Kit (Invitrogen, A35378), according to the manufacturer’s protocol. Briefly, the treatment media was removed and the cells were washed with 50 μL cold 1X phosphate-buffered saline (Corning, 21-040-CM). Fifty μL lysis buffer containing DNase I was added to each well and the plate was incubated on a rotor at RT for 5 mins. Five μL stop solution was then added to each well and after another 2 mins incubation on a rotor at RT, the cell lysates were used for reverse transcription. The resulting cDNA was diluted 1:2 with nuclease-free, distilled water (Invitrogen, 10977015). Gene expression was measured using TaqMan Fast Advanced Master Mix (Applied Biosystems, 4444964) and the following TaqMan Gene Expression assays (Applied Biosystems, 4331182): 18S (Hs99999901_s1), ACTB (Hs01060665_g1), ANGPTL4 (Hs01101123_g1), CPT1A (Hs00912671_m1), DIO1 (Hs00174944_m1), TFG (Hs02832013_g1), THRA (Hs00268470_m1), and THRB (Hs00230861_m1). ACTB and TFG served as control housekeeping genes for Huh-7 assays and 18S and ACTB for PHH assays. Ten μL reactions were run on the qTOWER³ 84 (Analytik Jena). Relative quantification (RQ) of gene expression was calculated via the 2^−ΔΔCt method and dose-response curves were fitted by non-linear regression with variable slope. Statistical analysis was performed in GraphPad Prism 8.
We aimed to develop an in vitro, cell-based assay that is not only amenable to high throughput screening of compounds, but that can also more reliably recapitulate in vivo processes. Because activated THR may function as a transcription factor, we compared the action of THR agonists in a human hepatocyte-derived cell line and in primary human hepatocytes (PHH) by quantifying transcriptional changes resulting from compound treatment (Fig 2A). Cells were cultured in TH-depleted media for 24 hrs and then treated with compounds for 24 hrs. The RNA levels of THR target genes were then measured via RT-qPCR.

In the next assay the test system is HFD fed rats. Put plainly: High-fat diet fed rat study: serum and hepatic lipid levels. Conditions: 0.5 mg/kg I.P. single dose. In kind it is in vivo. The method, then:
Animals were purchased from Vital River Laboratory Animal Technology Co. Ltd. and experiments were conducted at Covance Pharmaceutical R&D (Shanghai) Co., Ltd. (China). Animals were group-housed in polycarbonate cages with corncob bedding under controlled temperature (21–25°C), humidity (40–70%), and a 12-hr light/dark cycle. All procedures performed were in compliance with local animal welfare legislation, Covance global policies and procedures, and the Guide for the Care and Use of Laboratory Animals.
Eighty-four male Sprague Dawley rats, approximately 8 to 11 weeks of age, were fed with either a normal diet, ND (D12450K: 10 kcal% fat, no sucrose), or high-fat diet, HFD (D12109C: 40 kcal% fat, 1.25 gm% cholesterol, 0.5 gm% sodium cholate, 12.5 gm% sucrose). After 12 days of diet consumption, baseline serum total cholesterol and low-density lipoprotein cholesterol (LDL-C) levels were measured with the cobas 6000 c501 Chemistry Analyzer (Roche) to confirm hypercholesterolemia in the HFD fed rats. Animals were then randomized into treatment groups.
Twenty-four hrs after dosing, animals were euthanized by CO2 inhalation and serum and plasma were collected along with liver tissue. Serum total cholesterol and LDL-C levels were determined as described above. […] Caudate lobes of the liver were used for analysis of hepatic total cholesterol (Abcam, ab65390) and triglyceride levels (Abcam, ab65336) via enzyme-linked immunosorbent assay. Right lateral lobes were stored in RNAlater (Invitrogen, AM7020) at -70°C until homogenization with the Scientz-48 TissueLyser LT for downstream gene expression analysis. RNA extraction was performed at WuXi AppTec (Hong Kong) Limited (China) with the RNeasy Mini Kit (Qiagen, 74106) and RNA concentration and quality was determined using the Nanodrop 2000 (Thermo Scientific); additional quality control was assessed with agarose gel electrophoresis. One μg total RNA from each sample was then reverse-transcribed using the High Capacity cDNA Reverse Transcription kit (Applied Biosystems, 4368814) and the resulting cDNA was diluted 1:5 with nuclease-free, distilled water. Gene expression was measured using TaqMan Fast Advanced Master Mix and the following TaqMan Gene Expression assays: Actb (Rn00667869_m1), Cpt1a (Rn00580702_m1), Dio1 (Rn00572183_m1), Me1 (Rn00561502_m1), Rplp1 (Rn03467157_gH), and Thrsp (Rn01511034_m1). Actb and Rplp1 served as control housekeeping genes. Ten μL reactions were run on the qTOWER³ 84. Relative quantification (RQ) of gene expression was calculated via the 2^−ΔΔCt method and statistical analysis was performed in GraphPad Prism 8.0 and Microsoft Excel.

Where [2] appears, read: Huh-7, CPT1A RNA, RT-qPCR, 24 hrs treatment, read-out: Huh-7 EC50 Mean ± SEM.
[3] abbreviates: Huh-7, 24 hrs, n = 2 (Fig 2C), read-out: mean EC50, ANGPTL4.
Where [4] appears, read: Huh-7, 24 hrs, n = 2 (Fig 2C), read-out: mean EC50, CPT1A.
Where [5] appears, read: Huh-7, 24 hrs, n = 2 (Fig 2C), read-out: mean EC50, DIO1.

Read-outs that look alike come from different tables or passages of the source.

Regarding `Cc1cc(OCC(=O)O)cc(C)c1Cc1ccc(O)c(C(C)C)c1` [GC-1, sobetirome], the EC50 was […] with THR (THRSP RNA in PHH); […] in assay [1] (setting [2]); […] in assay [1] (setting [3]); […] in assay [1] (setting [4]); […] in assay [1] (setting [5]).

In the case of `N[C@@H](Cc1cc(I)c(Oc2ccc(O)c(I)c2)c(I)c1)C(=O)O` [T3, triiodothyronine], the EC50 in the assay on THR (THRSP RNA in PHH) turned out to be […]; in assay [1] (setting [2]) it was […]; in assay [1] (setting [3]) it was […]; in assay [1] (setting [4]), […]; in assay [1] (setting [5]), […]. Moreover, in the assay with HFD fed rats, the “decrease in serum total cholesterol (pre-dose vs 24 hrs post-dose)” value came to 68.2%. Moreover, the “decrease in serum triglyceride levels (pre-dose vs 24 hrs post-dose)” value in the assay on HFD fed rats is given as 71.2%.

One may read the EC50 as the midpoint of the concentration-response curve.
